Values quoted from earlier work in patent publication US20240122955A1, “ORAL DELIVERY” (GUANGZHOU DAZHOU BIOMEDICINE LTD., priority 2021, published 2024).

Columns and labels:
SGLT2 = target: T1, SGLT2 (Homo sapiens, UniProt P31639); settings: among the three FDA approved drugs canagliflozin, dapagliflozin, empagliflozin
T1 sequence (P31639 1-672): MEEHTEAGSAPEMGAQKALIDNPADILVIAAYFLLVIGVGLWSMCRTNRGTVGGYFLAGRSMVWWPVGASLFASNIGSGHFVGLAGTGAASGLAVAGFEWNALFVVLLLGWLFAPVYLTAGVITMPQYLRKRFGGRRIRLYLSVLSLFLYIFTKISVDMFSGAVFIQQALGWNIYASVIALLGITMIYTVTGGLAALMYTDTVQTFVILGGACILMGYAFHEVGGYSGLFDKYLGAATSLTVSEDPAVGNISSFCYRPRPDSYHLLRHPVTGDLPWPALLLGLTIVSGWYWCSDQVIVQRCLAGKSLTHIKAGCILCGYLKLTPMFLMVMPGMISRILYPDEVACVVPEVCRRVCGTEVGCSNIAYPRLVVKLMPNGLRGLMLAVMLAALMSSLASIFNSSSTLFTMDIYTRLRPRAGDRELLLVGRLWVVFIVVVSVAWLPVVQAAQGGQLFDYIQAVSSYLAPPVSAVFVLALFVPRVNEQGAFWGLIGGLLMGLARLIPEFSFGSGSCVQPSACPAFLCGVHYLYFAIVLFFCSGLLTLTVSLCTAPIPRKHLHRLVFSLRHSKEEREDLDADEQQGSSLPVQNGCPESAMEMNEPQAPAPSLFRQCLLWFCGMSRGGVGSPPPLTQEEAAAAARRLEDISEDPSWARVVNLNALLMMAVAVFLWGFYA

[1] = T2D patients with high risk of cardiovascular disease events, versus the placebo group

SMILES	selectivity for SGLT2 compared to SGLT1 (SGLT2)	relative risk reduction in death from cardiovascular causes [1] [%]
Cc1ccc([C@@H]2O[C@H](CO)[C@@H](O)[C@H](O)[C@H]2O)cc1Cc1ccc(-c2ccc(F)cc2)s1 [canagliflozin]	least selective	
OCC1O[C@@H](c2ccc(Cl)c(Cc3ccc(O[C@@H]4CCOC4)cc3)c2)C(O)C(O)[C@@H]1O (stereo partly drawn) [empagliflozin]	greatest selectivity	38
